Test results: paper PMC2192259 (The Journal of Experimental Medicine, 1995)
“Also recorded” adds a separate entry of the source.

Tested on: 20S proteasome
Assay: 20S proteasome from BALB.SV cells in assay buffer
Conditions: 37C, up to 24 h

MDIGAYPHFMPTNLAGDPY
fragment found: YPHFMPTNL, major; also recorded: YPH- FMPTNL(ox)
